The experiment has as its system BDF1 mice, P388 leukemia ip, median survival T/C. The experiment is described as follows: NCI In Vivo Anticancer Drug Screen. Data for tumor model P388 Leukemia (intraperitoneal) in B6D2F1 (BDF1) mice. Conditions: endpoint: median survival time, higher = longer survival. An outline of the steps:
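Mice carrying the transplantable tumour receive compound or vehicle. Survival is followed in each arm, and the treated measure is divided by the vehicle measure.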

The mark [1] stands for this setting: dose: 50.0 mg/kg/injection, schedule: Q01DX009 (ip), vehicle: saline with Tween-80.
Where [2] appears, read: dose: 100.0 mg/kg/injection, schedule: Q01DX009 (ip), vehicle: saline with Tween-80.
Setting [3] is: dose: 37.5 mg/kg/injection, schedule: Q04DX003 (ip), vehicle: Klucel (hydroxypropylcellulose) (HPC).
The mark [4] stands for this setting: dose: 100.0 mg/kg/injection, schedule: Q04DX003 (ip), vehicle: saline with Tween-80.
The mark [5] stands for this setting: dose: 200.0 mg/kg/injection, schedule: Q04DX003 (ip), vehicle: saline with Tween-80.
[6] abbreviates: dose: 400.0 mg/kg/injection, schedule: Q04DX003 (ip), vehicle: saline with Tween-80.
Where [7] appears, read: dose: 50.0 mg/kg/injection, schedule: Q01DX009 (ip), vehicle: Klucel (hydroxypropylcellulose) (HPC).
[8] abbreviates: dose: 200.0 mg/kg/injection, schedule: Q01DX009 (ip), vehicle: saline with Tween-80.
The mark [9] stands for this setting: dose: 100.0 mg/kg/injection, schedule: Q01DX009 (ip), vehicle: Klucel (hydroxypropylcellulose) (HPC).
[10] abbreviates: dose: 200.0 mg/kg/injection, schedule: Q01DX009 (ip), vehicle: Klucel (hydroxypropylcellulose) (HPC).
Setting [11] is: dose: 400.0 mg/kg/injection, schedule: Q01DX009 (ip), vehicle: saline with Tween-80.

Data on 23 compounds can be found in PubChem BioAssay AID328 (DTP/NCI, 2004).

Inconclusive results and toxic doses are left out.

With `CN(N=O)C(=O)NNC(=O)N(C)N=O`, the T/C runs as follows: (dose: 40.0 mg/kg/injection, schedule: Q04DX003 (ip), vehicle: saline with Tween-80) 105 % of control; (dose: 60.0 mg/kg/injection, schedule: Q04DX003 (ip), vehicle: saline with Tween-80) 115 % of control; (dose: 90.0 mg/kg/injection, schedule: Q04DX003 (ip), vehicle: saline with Tween-80) 105 % of control.
`COc1ccc2nc3cc(Cl)ccc3c(NCCCNCCCCNCCCNc3c4ccc(Cl)cc4nc4ccc(OC)cc34)c2c1`: the T/C is, setting by setting: (dose: 1.25 mg/kg/injection, schedule: Q01DX009 (ip), vehicle: saline with Tween-80) 116 % of control; (dose: 2.5 mg/kg/injection, schedule: Q01DX009 (ip), vehicle: saline with Tween-80) 107 % of control.
Take `O=C(NC(=O)c1c(F)cccc1F)Nc1ccc(OCc2ccccc2)cc1`: the T/C is, setting by setting: under setting [1], 93 % of control; under setting [2], 86 % of control.
On to `O=C(COc1ccc(Cl)cc1)C1CSc2ccc(Br)cc21` (stereo not drawn), for which the T/C (dose: 100.0 mg/kg/injection, schedule: Q04DX003 (ip), vehicle: saline sonified) was 90 % of control; the T/C (dose: 200.0 mg/kg/injection, schedule: Q04DX003 (ip), vehicle: saline sonified) is 95 % of control; the T/C (dose: 400.0 mg/kg/injection, schedule: Q04DX003 (ip), vehicle: saline sonified) was 95 % of control.
With `CCOC(=O)NC1CC2(C=CN1C(=O)OCC)CCCCC2` (stereo not drawn), the T/C by setting is: under setting [3], 113 % of control; (dose: 75.0 mg/kg/injection, schedule: Q04DX003 (ip), vehicle: Klucel (hydroxypropylcellulose) (HPC)) 118 % of control; (dose: 150.0 mg/kg/injection, schedule: Q04DX003 (ip), vehicle: Klucel (hydroxypropylcellulose) (HPC)) 112 % of control.
Regarding `Cc1ccc(S(=O)(=O)Nc2ccccc2SSc2ccccc2NS(=O)(=O)c2ccc(C)cc2)cc1`, the T/C runs as follows: under setting [4], 100 % of control; under setting [5], 110 % of control; under setting [6], 110 % of control.
`C=C(Br)CNCCCCCC`: the T/C reads like this: (dose: 4.68 mg/kg/injection, schedule: Q04DX003 (ip), vehicle: Klucel (hydroxypropylcellulose) (HPC)) 95 % of control; (dose: 9.37 mg/kg/injection, schedule: Q04DX003 (ip), vehicle: Klucel (hydroxypropylcellulose) (HPC)) 100 % of control; (dose: 12.5 mg/kg/injection, schedule: Q01DX009 (ip), vehicle: Klucel (hydroxypropylcellulose) (HPC)) 109 % of control; (dose: 18.75 mg/kg/injection, schedule: Q04DX003 (ip), vehicle: Klucel (hydroxypropylcellulose) (HPC)) 108 % of control; (dose: 25.0 mg/kg/injection, schedule: Q01DX009 (ip), vehicle: Klucel (hydroxypropylcellulose) (HPC)) 118 % of control; under setting [3], 86 % of control. Moreover, the T/C under setting [7] is 113 % of control.
Regarding `O=C(C(=O)c1ccc(Cl)cc1)c1ccc(Cl)cc1`, the T/C is 100 % of control (dose: 12.5 mg/kg/injection, schedule: Q04DX003 (ip), vehicle: other) and 86 % of control (dose: 25.0 mg/kg/injection, schedule: Q04DX003 (ip), vehicle: other).
Turning to `O=C(Nc1ccccc1)OCc1ccc(OCc2ccccc2)cc1`, the T/C is 89 % of control under setting [1], 122 % of control under setting [2] and 105 % of control under setting [8].
Turning to `COc1ccc2c(c1O)-c1cccc3c1[C@@H](C2)N(CCCl)CC3`, the T/C is 161 % of control (dose: 25.0 mg/kg/injection, schedule: Q04DX003 (ip), vehicle: saline with Tween-80) and 161 % of control (dose: 50.0 mg/kg/injection, schedule: Q04DX003 (ip), vehicle: saline with Tween-80).
Consider `CC1(C)CC(=O)NN1C(=O)c1ccccc1`, for which the T/C reads like this: under setting [4], 100 % of control; under setting [5], 105 % of control; under setting [6], 95 % of control.
Consider `Cc1cn(C2CC(O)C(CO)O2)c(=O)[nH]c1=O` (stereo not drawn), for which the T/C reads like this: (dose: 500.0 mg/kg/injection, schedule: Q04DX003 (ip), vehicle: saline) 101 % of control; (dose: 750.0 mg/kg/injection, schedule: Q04DX003 (ip), vehicle: saline) 111 % of control; (dose: 1000.0 mg/kg/injection, schedule: Q04DX003 (ip), vehicle: saline) 104 % of control.
Consider `CCCCNC(=O)n1nnc2ccccc21`, for which the T/C is, setting by setting: under setting [1], 89 % of control; under setting [2], 106 % of control; under setting [8], 106 % of control.
For the compound `COc1cc(C=NC(CO)C(=O)O)ccc1O.COc1cc(C=NC(CO)C(=O)O)ccc1O.[Fe]` (stereo not drawn), the T/C (dose: 100.0 mg/kg/injection, schedule: Q01DX009 (ip), vehicle: saline) was 100 % of control; the T/C (dose: 100.0 mg/kg/injection, schedule: Q04DX003 (ip), vehicle: saline) was 100 % of control; the T/C (dose: 200.0 mg/kg/injection, schedule: Q01DX009 (ip), vehicle: saline) is 100 % of control; the T/C (dose: 200.0 mg/kg/injection, schedule: Q04DX003 (ip), vehicle: saline) is 95 % of control; the T/C (dose: 400.0 mg/kg/injection, schedule: Q04DX003 (ip), vehicle: saline) is 95 % of control.
Take `Cc1cc2nc(CO)[nH]c2cc1C`: the T/C is 100 % of control under setting [9]; 86 % of control under setting [10]; 95 % of control (dose: 400.0 mg/kg/injection, schedule: Q01DX009 (ip), vehicle: Klucel (hydroxypropylcellulose) (HPC)).
Turning to `Nc1nc(=O)c2[nH]cnc2n1O`, the T/C is, setting by setting: (dose: 13.75 mg/kg/injection, schedule: Q01DX009 (ip), vehicle: saline) 90 % of control; (dose: 27.5 mg/kg/injection, schedule: Q01DX009 (ip), vehicle: saline) 95 % of control.
With `C=C(C)S(=O)(=O)c1ccc(C)cc1`, the T/C runs as follows: under setting [4], 108 % of control; under setting [5], 91 % of control; under setting [6], 88 % of control.
For `CCOC(=O)C(=O)C1CCCC1=O` (stereo not drawn), the T/C is, setting by setting: under setting [2], 92 % of control; under setting [4], 95 % of control; under setting [8], 89 % of control; under setting [5], 109 % of control; under setting [11], 92 % of control; under setting [6], 100 % of control.
`CCOC(=O)C(=Cc1ccc(C=C(C(=O)OCC)C(=O)OCC)cc1)C(=O)OCC`: the T/C is, setting by setting: under setting [7], 110 % of control; under setting [9], 105 % of control; (dose: 100.0 mg/kg/injection, schedule: Q04DX003 (ip), vehicle: Klucel (hydroxypropylcellulose) (HPC)) 91 % of control; under setting [10], 95 % of control; (dose: 200.0 mg/kg/injection, schedule: Q04DX003 (ip), vehicle: Klucel (hydroxypropylcellulose) (HPC)) 91 % of control.
For the compound `O=C(NC(=O)c1c(F)cccc1F)Nc1nc2ccccc2s1`, the T/C (dose: 25.0 mg/kg/injection, schedule: Q01DX009 (ip), vehicle: saline with Tween-80) is 93 % of control and the T/C under setting [2] is 93 % of control.
Take `CC(=N\O)/C(C)=N/O.CC(=N\O)/C(C)=N/O.CC1CC[N-]CC1.CC1CC[N-]CC1.CC1CC[N-]CC1.CC1CC[N-]CC1.[Cl][Rh][Cl].[Pt+2]`: the T/C by setting is: (dose: 0.39 mg/kg/injection, schedule: Q01DX009 (ip), vehicle: water) 110 % of control; (dose: 0.78 mg/kg/injection, schedule: Q01DX009 (ip), vehicle: water) 110 % of control; (dose: 1.56 mg/kg/injection, schedule: Q01DX009 (ip), vehicle: water) 98 % of control; (dose: 6.25 mg/kg/injection, schedule: Q01DX009 (ip), vehicle: water) 94 % of control; (dose: 12.5 mg/kg/injection, schedule: Q01DX009 (ip), vehicle: water) 99 % of control.
As for `C/C=C1\C(=O)O[C@@]23C=C[C@H]4C(C(=O)OC)=CO[C@@H](O[C@H]12)[C@H]43`, the T/C was 100 % of control (dose: 0.75 mg/kg/injection, schedule: Q01DX009 (ip), vehicle: saline); 115 % of control (dose: 2.5 mg/kg/injection, schedule: Q01DX009 (ip), vehicle: saline); 105 % of control (dose: 165.0 micrograms/kg/injection, schedule: Q01DX009 (ip), vehicle: Klucel (hydroxypropylcellulose) (HPC)); 115 % of control (dose: 620.0 micrograms/kg/injection, schedule: Q01DX009 (ip), vehicle: Klucel (hydroxypropylcellulose) (HPC)); 105 % of control (dose: 1250.0 micrograms/kg/injection, schedule: Q01DX009 (ip), vehicle: Klucel (hydroxypropylcellulose) (HPC)).
As to `CN(C)c1ccc2cc(S(=O)(=O)O)cc(O)c2c1`, the T/C reads like this: under setting [2], 95 % of control; under setting [8], 91 % of control; under setting [11], 91 % of control.
